Where two headings read alike, the source gives them in different places.
What was measured:
[1] = system: Caco-2 cells; assay: Counter-screen on Caco-2 cells, ATP level by luminescence (ATPlite), 48 h incubation; type: cell-based, human; conditions: atmospheric O2, 5% CO2, 48 h, 37 °C
Method: Trophozoites of G. intestinalis strain WB clone C6 (ATCC No. 50803TM) were cultured axenically at 37^∘C in 25-cm^2 flasks containing Diamond’s TYI-S-33 medium supplemented with 10% bovine calf serum, 1 mg/mL bovine bile, 0.1 g/L streptomycin and 100 U/mL penicillin. […] Human epithelial colorectal adenocarcinoma (Caco-2) cells were grown in 25-cm^2 flasks in EMEM supplemented with 1% (v/v) non-essential amino acids, 2 mM glutamine, 5% (v/v) fetal bovine serum, 0.1 g/L streptomycin, and 100 U/mL penicillin.
Cells were detached with 0.5% trypsin-EDTA and seeded in sterile 96-well white clear-bottom plates at the same density of Giardia trophozoites and at increasing concentration of the compound to be tested, as described above. The assays were carried out exactly as reported for the Giardia trophozoites, except that the plates were incubated (still at 37^∘C) at atmospheric O2 level, 5% CO2, and 95% humidity. Each drug concentration was tested in at least seven replicates. MTZ was used as an internal […] control in the assay. Following 48 h incubation with each compound, according to the manufacturer instructions, 100 μL of the ATPlite^TM luminescence assay system (Perkin Elmer) was added to each well for one-step lysis and ATP level detection by luminescence.
Luminometric data were calibrated using ATP standard curves and normalized to the ATP level measured in control DMSO-treated cells (taken as 100%). The measured ATP level percentage was plotted as a function of the compound concentration and the half-maximal inhibitory concentration (IC50) was obtained by fitting the resulting titration profile to the Hill equation ([Goutelle et al., 2008]). The selectivity index (SI) of the compounds was then calculated as the ratio between the IC50 value measured on human cells over the value determined on Giardia trophozoites (SI = IC50,Caco-2/IC50,Giardia).
Selectivity of the newly synthesized compounds toward Giardia was assessed by running a counter-screen on human epithelial Caco-2 cells. […] This allowed us to calculate the compounds SI, defined as the ratio between the IC50 value measured on human cells over the value determined on Giardia trophozoites.

[2] = system: Giardia intestinalis trophozoites; assay: Drug susceptibility of Giardia trophozoites, ATP level by luminescence (BacTiter-Glo), 48 h incubation, anaerobic or microaerobic; type: cell-based, Giardia intestinalis strain WB clone C6; conditions: for IC50: 48 h, 37 °C, ATP level; for selectivity ratio at 48 h: human (Caco-2 cells) versus Giardia intestinalis, Caco-2, SI = IC50,Caco-2/IC50,Giardia
Method: Trophozoites of G. intestinalis strain WB clone C6 (ATCC No. 50803TM) were cultured axenically at 37^∘C in 25-cm^2 flasks containing Diamond's TYI-S-33 medium supplemented with 10% bovine calf serum, 1 mg/mL bovine bile, 0.1 g/L streptomycin and 100 U/mL penicillin. Typically, 50 ml medium was inoculated with 25 × 10^6 cells and after 2 days cells were harvested by chilling the flasks on ice for 30 min for drug susceptibility assays. […] The assays were performed following the procedure described in [Bahadur et al. (2014)], using sterile 96-well white clear-bottom plates. […] Each drug concentration was tested in at least six replicates. MTZ was used as an internal positive control in the assay. The microtiter plates were then incubated at 37^∘C under anaerobic or microaerobic conditions, ensured by the Anaerocult® A or the Anaerocult® […] (Merck), respectively. […] Following 48 h incubation with the compound to be tested, 100 μL of the BacTiter-Glo^TM Microbial Cell Viability Assay System reagent (Promega) was added to each well for one-step lysis and ATP level detection. Plates were then incubated at room temperature for 15 min and ATP levels finally detected by luminescence on a plate reader (Wallac Victor3 1420 Multilabel Counter, PerkinElmer). Luminometric data were calibrated using ATP standard curves and normalized to the ATP level measured in control DMSO-treated cells (taken as 100%). The measured ATP level percentage was plotted as a function of the compound concentration and the half-maximal inhibitory concentration (IC50) was obtained by fitting the resulting titration profile to the Hill equation ([Goutelle et al., 2008]). The selectivity index (SI) of the compounds was then calculated as the ratio between the IC50 value measured on human cells over the value determined on Giardia trophozoites (SI = IC50,Caco-2/IC50,Giardia). The antigiardial activity of the novel compounds 23-67 was tested under both anaerobic and microaerobic conditions. According to ([Dunn et al., 2010]; [Bahadur et al., 2014]), susceptibility of Giardia trophozoites to increasing concentrations of each compound was assessed based on ATP level determination by luminescence. Dose-response curves for each compound were obtained after 48 h-incubation and compared to the data collected under identical conditions with MTZ, the drug of choice for treatment of giardiasis. […] Typical dose-response curves are shown in Figure 2, whereas the IC50 values measured for the synthetic compounds and MTZ under anaerobic and microaerobic conditions are reported in Table 1. […] Under anaerobic conditions, 18 out of the 45 synthetic compounds were as effective as MTZ or more under identical conditions (see Table 1).

[3] = Giardia duodenalis, anaerobic conditions (Anaerocult A), read-out: Giardia (anaerobiosis) IC50
[4] = Giardia duodenalis, microaerobic conditions (~5% O2, Anaerocult C), read-out: Giardia (microaerobiosis) IC50
[5] = Giardia under anaerobiosis, read-out: Selectivity (IC50,Caco/IC50,Giardia) Anaerobiosis
[6] = Giardia under microaerobiosis, read-out: Selectivity (IC50,Caco/IC50,Giardia) Microaerobiosis

melting point | Structure (SMILES) | IC50 ([1]; Homo sapiens, Caco-2, 48 h) | IC50 [2, 3] | IC50 [2, 4] | selectivity ratio at 48 h [2, 5] | selectivity ratio at 48 h [2, 6] | IC50 [1] | IC50 ([2]; anaerobic conditions (Anaerocult A), read-out: Giardia (anaerobiosis) IC50)
210 to 212 °C | COc1ccc(-n2cc(Cn3c(=O)c(/C=C/C(=O)c4ccccc4OC)cc4ccccc43)nn2)cc1 [Compound 29] | ≥ 40000 nM | 2200 nM | 400 nM | > 15 | – | – | –
172 to 174 °C | O=C(/C=C/c1cc2ccccc2n(Cc2cn(-c3ccccc3)nn2)c1=O)c1ccccc1F [Compound 59] | 11200 nM | 1900 nM | 400 nM | 5.9 | 28 | – | –
210 to 212 °C | COc1ccccc1C(=O)/C=C/c1cc2ccccc2n(Cc2cn(-c3ccccc3)nn2)c1=O [Compound 65] | ≥ 40000 nM | 2200 to 3200 nM | 400 nM | – | – | ≥ 50000 nM | 1600 nM
216 to 218 °C | O=C(/C=C/c1cc2ccccc2n(Cc2cn(-c3ccccc3)nn2)c1=O)c1ccc(Cl)cc1 [Compound 62] | 5900 nM | 2100 nM | 700 nM | 2.8 | 8.4 | – | –
216 to 218 °C | Cc1ccc(C(=O)/C=C/c2cc3ccccc3n(Cc3cn(-c4ccccc4)nn3)c2=O)cc1 [Compound 64] | 17800 nM | 2800 nM | 500 nM | 6.4 | 35.6 | – | –
215 to 217 °C | COc1ccc(-n2cc(Cn3c(=O)c(/C=C/C(=O)c4ccccc4F)cc4ccccc43)nn2)cc1 [Compound 23] | ≥ 100000 nM | ≥ 100000 nM | ≥ 20000 nM | – | – | – | –
242 to 244 °C | O=C(/C=C/c1cc2ccccc2n(Cc2cn(-c3ccc(Cl)cc3)nn2)c1=O)c1ccccc1F [Compound 50] | ≥ 50000 nM | 4700 nM | 900 nM | ≥ 10 | ≥ 55 | – | –

Second part, the compound before the results:

Structure (SMILES) | melting point | IC50 ([1]; Homo sapiens, Caco-2, 48 h) | IC50 [2, 3] | IC50 [2, 4] | selectivity ratio at 48 h [2, 5] | selectivity ratio at 48 h [2, 6] | IC50 [1] | IC50 ([2]; anaerobic conditions (Anaerocult A), read-out: Giardia (anaerobiosis) IC50)
Cc1ccc(-n2cc(Cn3c(=O)c(/C=C/C(=O)c4ccc(Cl)cc4)cc4ccccc43)nn2)cc1 [Compound 35] | 196 to 198 °C | 7000 nM | 2400 nM | 800 nM | 2.9 | 8.8 | – | –
O=C(/C=C/c1cc2ccccc2n(Cc2cn(-c3ccc(Cl)cc3)nn2)c1=O)c1cccc(F)c1 [Compound 51] | 190 to 192 °C | ≥ 100000 nM | 10000 nM | 900 nM | ≥ 10 | ≥ 111 | – | –
Cc1ccc(-n2cc(Cn3c(=O)c(/C=C/C(=O)c4ccc(Br)cc4)cc4ccccc43)nn2)cc1 [Compound 36] | 216 to 218 °C | ≥ 50000 nM | 10700 nM | 2300 nM | ≥ 4 | ≥ 21 | – | –
O=C(/C=C/c1cc2ccccc2n(Cc2cn(-c3ccc(F)cc3)nn2)c1=O)c1ccc(Cl)cc1 [Compound 44] | 190 to 192 °C | 7200 nM | 1500 nM | 1000 nM | 4.8 | 7.2 | – | –
COc1ccc(-n2cc(Cn3c(=O)c(/C=C/C(=O)c4ccc(Cl)cc4)cc4ccccc43)nn2)cc1 [Compound 26] | 230 to 232 °C | ≥ 20000 nM | 5000 nM | 2600 nM | ≥ 4 | ≥ 7 | – | –
COc1ccc(-n2cc(Cn3c(=O)c(/C=C/C(=O)c4ccc(C)cc4)cc4ccccc43)nn2)cc1 [Compound 28] | 213 to 215 °C | ≥ 80000 nM | 5400 nM | 1500 nM | ≥ 14 | ≥ 53 | – | –
O=C(/C=C/c1cc2ccccc2n(Cc2cn(-c3ccc(F)cc3)nn2)c1=O)c1cccc(F)c1 [Compound 42] | 203 to 205 °C | 9600 nM | 3300 nM | 700 nM | 2.9 | 13.7 | – | –
